From BindingDB's records for doi:10.1016/j.bioorg.2017.03.006 (CSIR-Indian Institute of Chemical Biology, 2017)

Target: Alpha-glucosidase MAL32 (Saccharomyces cerevisiae (strain ATCC 204508 / S288c), UniProt P38158)
Assay: α-Glucosidase Inhibition Assay
Conditions: pH 6.8; 37 °C
Method: Briefly, the sample solution (25 μL, 1.0 mM solution in DMSO) was mixed with enzyme solution (25 μL, 0.5 U/mL prepared in 0.1 M phosphate buffer, pH 6.8). […] After the incubation, the substrate p-nitrophenyl α-D-glucopyranoside (25 μL, 0.5 mM, 0.1 Mphosphate buffer, pH 6.8) was added to the mixture and allowed to incubate at 37 ± 1 °C for 30 min. The reaction was then terminated by the addition of aqueous solution of sodium carbonate (100 μL, 0.2 M). […] The uninhibited enzyme solution was taken as blank and an appropriate DMSO control was used. […] The concentration of DMSO in the final solution was maintained below 5.0% so that the enzyme activity was not destroyed.

Sequence of Alpha-glucosidase MAL32 (P38158 whole entry): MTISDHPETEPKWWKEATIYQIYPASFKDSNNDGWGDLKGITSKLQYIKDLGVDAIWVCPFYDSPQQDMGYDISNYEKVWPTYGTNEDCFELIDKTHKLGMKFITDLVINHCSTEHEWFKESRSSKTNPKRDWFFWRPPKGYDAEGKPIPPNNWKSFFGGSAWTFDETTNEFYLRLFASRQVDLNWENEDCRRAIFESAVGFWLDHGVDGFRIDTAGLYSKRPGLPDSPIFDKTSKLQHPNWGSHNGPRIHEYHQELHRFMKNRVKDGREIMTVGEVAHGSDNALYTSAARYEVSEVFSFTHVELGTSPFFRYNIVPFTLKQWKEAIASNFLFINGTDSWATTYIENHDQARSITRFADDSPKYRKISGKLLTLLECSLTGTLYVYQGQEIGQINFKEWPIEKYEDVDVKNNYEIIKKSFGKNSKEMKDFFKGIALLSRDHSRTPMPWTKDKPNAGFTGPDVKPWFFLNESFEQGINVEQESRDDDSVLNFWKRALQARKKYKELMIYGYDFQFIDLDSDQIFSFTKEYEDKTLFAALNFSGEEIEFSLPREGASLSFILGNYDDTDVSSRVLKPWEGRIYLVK

IC50: 148 µM
Compound: O=C(CCc1cn(-c2ccc(O)cc2)nn1)N[C@@H]1OC(CO)[C@@H](O)C(O)C1O (stereo partly drawn) [3-[1-(4-Hydroxyphenyl)-1H-[1,2,3]triazol-4-yl]-N-(2,3,4,6-tetra-O-acetyl-β-D-glucopyranosyl)propanamide (4f)]
